ChEMBL document CHEMBL3217591, “Synthesis and biological evaluation of imidazolylmethylacridones as cytochrome P-450 enzymes inhibitors” (Medchemcomm, 2012)

Assays:
[1] = target: T1, Steroid 17-alpha-hydroxylase/17,20 lyase (Homo sapiens, UniProt P05093); assay: Inhibition of human CYP17 expressed in Escherichia coli using progesterone as substrate at 2 uM preincubated for 5 mins followed by enzyme addition measured after 30 mins by HPLC analysis relative to control; conditions: 0.5 h
T1 sequence (P05093 whole entry): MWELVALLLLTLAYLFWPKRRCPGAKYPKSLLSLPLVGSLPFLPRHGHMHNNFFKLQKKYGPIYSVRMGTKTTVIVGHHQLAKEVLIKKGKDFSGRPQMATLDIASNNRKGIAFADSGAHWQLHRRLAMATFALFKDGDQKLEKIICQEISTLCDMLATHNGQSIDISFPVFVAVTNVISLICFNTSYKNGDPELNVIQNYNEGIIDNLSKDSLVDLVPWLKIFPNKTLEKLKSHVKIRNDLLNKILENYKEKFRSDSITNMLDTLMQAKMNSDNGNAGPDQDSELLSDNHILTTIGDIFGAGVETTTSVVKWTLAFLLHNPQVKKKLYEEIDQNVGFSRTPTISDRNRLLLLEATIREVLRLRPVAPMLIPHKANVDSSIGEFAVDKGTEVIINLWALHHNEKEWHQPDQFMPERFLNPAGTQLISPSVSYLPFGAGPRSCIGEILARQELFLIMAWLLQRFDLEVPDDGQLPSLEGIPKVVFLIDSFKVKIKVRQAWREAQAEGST

Aromatase [2] = target: T2, Aromatase (Homo sapiens, UniProt P11511); assay: Inhibition of CYP19 isolated from microsomal fraction of human term placental tissue using [1beta-3H] androstenedione as substrate preincubated for 5 mins followed by enzyme addition measured after 20 mins by beta scintillation counting analysis
T2 sequence (P11511 whole entry): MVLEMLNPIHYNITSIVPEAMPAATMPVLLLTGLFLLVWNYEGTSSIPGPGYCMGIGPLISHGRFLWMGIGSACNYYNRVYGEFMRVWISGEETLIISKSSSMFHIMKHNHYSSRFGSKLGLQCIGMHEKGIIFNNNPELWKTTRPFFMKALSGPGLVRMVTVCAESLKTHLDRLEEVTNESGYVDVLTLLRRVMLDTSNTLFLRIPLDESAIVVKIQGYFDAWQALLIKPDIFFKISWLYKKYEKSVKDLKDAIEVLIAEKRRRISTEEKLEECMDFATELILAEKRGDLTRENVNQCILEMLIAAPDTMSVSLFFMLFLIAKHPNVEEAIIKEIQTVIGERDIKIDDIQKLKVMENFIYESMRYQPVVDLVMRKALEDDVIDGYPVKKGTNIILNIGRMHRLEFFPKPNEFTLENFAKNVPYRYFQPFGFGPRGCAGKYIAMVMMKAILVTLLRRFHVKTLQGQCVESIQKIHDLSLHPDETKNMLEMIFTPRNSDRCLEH

Aromatase [3] = target: T2, Aromatase; assay: Inhibition of CYP19 isolated from microsomal fraction of human term placental tissue using [1beta-3H] androstenedione as substrate at 2 uM preincubated for 5 mins followed by enzyme addition measured after 20 mins by beta scintillation counting analysis relative to control
[4] = target: T3, Cytochrome P450 11B2, mitochondrial (Homo sapiens, UniProt P19099); assay: Inhibition of CYP11B2 (unknown origin) expressed in Chinese hamster V79MZ cells using [1,2-3H]-11-deoxycorticosterone as substrate at 500 nM preincubated for 60 mins followed by substrate addition measured after 50 mins by HPLC analysis relative to control; format: cell-based
T3 sequence (P19099 whole entry): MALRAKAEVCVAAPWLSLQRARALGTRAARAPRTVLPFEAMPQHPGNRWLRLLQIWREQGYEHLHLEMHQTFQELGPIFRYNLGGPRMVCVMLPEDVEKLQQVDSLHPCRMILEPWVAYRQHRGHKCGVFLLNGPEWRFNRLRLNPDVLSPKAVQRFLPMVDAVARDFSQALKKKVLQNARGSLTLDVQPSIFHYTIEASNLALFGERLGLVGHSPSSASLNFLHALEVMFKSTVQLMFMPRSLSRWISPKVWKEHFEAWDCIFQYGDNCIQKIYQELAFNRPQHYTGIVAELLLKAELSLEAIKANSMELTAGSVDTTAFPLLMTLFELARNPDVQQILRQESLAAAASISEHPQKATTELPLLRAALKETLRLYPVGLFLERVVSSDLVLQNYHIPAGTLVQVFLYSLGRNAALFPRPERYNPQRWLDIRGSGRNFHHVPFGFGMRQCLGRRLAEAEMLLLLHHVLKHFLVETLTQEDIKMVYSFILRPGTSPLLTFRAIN

[5] = target: T4, Cytochrome P450 11B1, mitochondrial (Homo sapiens, UniProt P15538); assay: Inhibition of CYP11B1 (unknown origin) expressed in Chinese hamster V79MZ cells using [1,2-3H]-11-deoxycorticosterone as substrate preincubated for 60 mins followed by substrate addition measured after 25 mins by HPLC analysis; format: cell-based
T4 sequence (P15538 whole entry): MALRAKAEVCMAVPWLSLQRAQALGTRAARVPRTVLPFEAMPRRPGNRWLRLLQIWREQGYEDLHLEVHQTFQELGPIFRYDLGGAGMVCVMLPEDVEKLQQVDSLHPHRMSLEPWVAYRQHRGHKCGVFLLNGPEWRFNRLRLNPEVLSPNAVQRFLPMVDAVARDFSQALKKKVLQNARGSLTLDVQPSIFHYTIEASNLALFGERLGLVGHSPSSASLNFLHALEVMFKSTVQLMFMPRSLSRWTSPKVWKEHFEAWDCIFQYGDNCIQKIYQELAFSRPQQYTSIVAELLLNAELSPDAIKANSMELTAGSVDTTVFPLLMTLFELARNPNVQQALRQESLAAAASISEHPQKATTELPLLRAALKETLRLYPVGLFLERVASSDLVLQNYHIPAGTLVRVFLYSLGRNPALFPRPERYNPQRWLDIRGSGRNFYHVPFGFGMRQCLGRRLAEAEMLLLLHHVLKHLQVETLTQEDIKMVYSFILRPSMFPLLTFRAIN

[6] = target: T4, Cytochrome P450 11B1, mitochondrial; assay: Inhibition of CYP11B1 (unknown origin) expressed in Chinese hamster V79MZ cells using [1,2-3H]-11-deoxycorticosterone as substrate at 500 nM preincubated for 60 mins followed by substrate addition measured after 25 mins by HPLC analysis relative to control; format: cell-based

Row | SMILES | inhibition at 2 µM [1] [%] | IC50 (Aromatase [2]) [nM] | inhibition at 2 µM (Aromatase [3]) [%] | inhibition at 0.5 µM [4] [%] | IC50 [5] [nM] | inhibition at 0.5 µM [6] [%]
1 | O=c1c2ccccc2[nH]c2c(Cn3ccnc3)cccc12 | 1.4 | 14.4 | 95.5 | 40.8 | 21.2 | 97.5
2 | O=c1c2ccccc2[nH]c2ccc(Cn3ccnc3)cc12 | 0 | – | 0 | 3.4 | – | 40.7
3 | N#Cc1ccc(C(c2ccc(C#N)cc2)n2cncn2)cc1 [LETROZOLE] | 6.8 | – | 99 | 25.6 | – | 16.4
4 | CC(C)(C(=O)c1cccnc1)c1cccnc1 [METYRAPONE] | – | – | 0 | 95 | – | 98
